Where “and” joins values, the source holds several entries; their conditions need not be identical. Equal entries are not always repeated.
Assays:
[1] = target: T1, receptor interacting protein kinase 1 (GST-hRIPK1 (8-327)) (Homo sapiens, UniProt Q13546); assay: ADP-Glo luminescence assay, RIPK1 autophosphorylation; type: biochemical; details: 1.5 μg/mL GST-hRIPK1 (8-327), 50 μM ATP, 3 hours at room temperature
T1 construct: GST-hRIPK1 (8-327) enzyme was generated by Proteros GmbH by Baculovirus expression system
T1 sequence (Q13546 8-327): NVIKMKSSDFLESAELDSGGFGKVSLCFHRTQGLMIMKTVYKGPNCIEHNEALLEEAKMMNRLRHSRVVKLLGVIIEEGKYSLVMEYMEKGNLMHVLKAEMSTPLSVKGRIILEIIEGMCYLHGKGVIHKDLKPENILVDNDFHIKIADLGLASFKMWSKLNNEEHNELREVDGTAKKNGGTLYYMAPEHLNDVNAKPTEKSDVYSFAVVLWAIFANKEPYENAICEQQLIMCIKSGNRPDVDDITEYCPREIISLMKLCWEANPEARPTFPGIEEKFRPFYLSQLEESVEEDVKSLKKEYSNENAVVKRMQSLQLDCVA
Experimental: (§1) Compound potency at receptor interacting protein kinase 1 and selectivity at receptor interacting protein kinase 2 and receptor interacting protein kinase 3 was determined in autophosphorylation mode, using an ADP-Glo luminescence assay, which measures the conversion of ATP to ADP.
(§2) GST-hRIPK1 (8-327) enzyme was generated by Proteros GmbH by Baculovirus expression system. GST-hRIPK2 (1-299) and GST-hRIPK3 (1-518) enzymes were purchased from SignalChem. Test compounds were diluted in DMSO and 0.1 μL of solution was dispensed to each well of a 384-well white solid microplates. The assay buffer was 50 mM HEPES pH 7.5, 50 mM NaCl, 30 mM MgCl2. The buffer was supplemented with 0.02% CHAPS, 0.01% of Pluronic F127, 0.1 mg/mL BSA and 1 mM DTT. Only for receptor interacting protein kinase 1 5 mM MnCl2, was included in the assay buffer on the day of the experiment. The enzymatic reaction consisted of 1.5 μg/mL GST-hRIPK1 (8-327) and 50 μM ATP for receptor interacting protein kinase 1, 0.4 μg/mL GST-hRIPK2 (1-299) and 150 μM ATP, 0.4 μg/mL GST-hRIPK3 (1-518) and 15 μM ATP. 5 μL of enzyme and 5 μL of ATP were added to the plate at twice the final assay concentration and incubated at room temperature for 3 hours. Following this reaction, 10 μL of ADP-Glo reagent (Promega) was added to each well and incubated for 40 minutes at room temperature. This stops the kinase reaction and depletes any remaining ATP. 20 μL of ADP-Glo detection reagent was then added to each well and incubated at room temperature for at least 15 minutes. The detection reagent converts ADP to ATP and introduces luciferase and luciferin to detect ATP. The luminescence is then measured with the Envision (PerkinElmer) plate reader. Test compound inhibition was expressed as percent inhibition of internal assay controls. For concentration response curves, normalized data is fit and pIC50 determined using XL-fit (IDBS) for Excel. The pIC50 were averaged to determine a mean value, for a minimum of two independent experiments.
as §1, with “Certain compounds were tested in the following. Compound” for “Compound”, “assay (Berger S. B. et al. (2015) Cell Death Discovery, 1: 15009),” for “assay,”
GST-hRIPK1 (8-327) enzyme was generated by Proteros GmbH by Baculovirus expression system.
as §2, with “Test” for “GST-hRIPK1 (8-327) enzyme was generated by Proteros GmbH by Baculovirus expression system. GST-hRIPK2 (1-299) and GST-hRIPK3 (1-518) enzymes were purchased from SignalChem. Test”, “microplate.” for “microplates.”, “comprised” for “consisted of”, “1” for “1, 0.4 μg/mL GST-hRIPK2 (1-299) and 150 μM ATP, 0.4 μg/mL GST-hRIPK3 (1-518)”, “IC50” for “pIC50”, “experiments. […]” for “experiments.”

[2] = target: T1, receptor interacting protein kinase 1 (GST-hRIPK1 (8-327)); assay: Fluorescent Polarization Binding (FP Binding) assay; details: 10 nM GST-hRIPK1 (8-327), 5 nM fluorescent-labeled ligand, 30 min at RT
Method in brief: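 Displacement of 5 nM fluorescent ligand from 10 nM GST-hRIPK1 (8-327), 30 min at room temperature in pH 7.5 HEPES buffer, 1% DMSO. Fluorescence polarization read (ex 531/em 595 nm); IC50 fitted from percent inhibition and averaged over at least two independent experiments.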

Row | IC50 [1] [µM] | IC50 [2] | melting point [°C] | SMILES
1 | < 1 | < 1 µM | – | CC(C)(C)C(=O)N1OCC[C@H]1c1ccccc1 [Compound 2, 2,2-dimethyl-1-[(3S)-3-phenyl-1,2-oxazolidin-2-yl]propan-1-one]
2 | < 1 | < 1 µM | – | O=C(Nc1ccccc1)N1OCC[C@H]1c1ccccc1 [Compound 4, (3S)—N,3-diphenyl-1,2-oxazolidine-2-carboxamide]
3 | < 1 | < 1 µM | – | CC1(C(=O)N2OCC[C@H]2c2ccccc2)COC1 [Compound 8, (3S)-2-(3-Methyloxetane-3-carbonyl)-3-phenyl-1,2-oxazolidine]
4 | < 1 | < 1 µM | – | O=C(C1CC1)N1OCC[C@H]1c1ccccc1 [Compound 12, (3S)-2-Cyclopropanecarbonyl-3-phenyl-1,2-oxazolidine]
5 | < 1 | < 1 µM | – | N#CC1(C(=O)N2OCC[C@H]2c2ccccc2)CC1 [Compound 16, 1-[(3S)-3-phenyl-1,2-oxazolidine-2-carbonyl]cyclopropane-1-carbonitrile]
6 | < 1 | < 1 µM | – | CC(C)(C#N)C(=O)N1OCC[C@H]1c1ccccc1 [Compound 17, 2,2-Dimethyl-3-oxo-3-[(3S)-3-phenyl-1,2-oxazolidin-2-yl]propanenitrile]
7 | < 1 | < 1 µM | – | O=C(c1onc2ccccc12)N1OCC[C@H]1c1ccccc1 [Compound 18, 3-[(3S)-3-phenyl-1,2-oxazolidine-2-carbonyl]-2,1-benzoxazole]
8 | < 1 | < 1 µM | – | CC(C)(O)C(=O)N1OCC[C@H]1c1ccccc1 [Compound 19, 2-Hydroxy-2-methyl-1-[(3S)-3-phenyl-1,2-oxazolidin-2-yl]propan-1-one]
9 | < 1 | < 1 µM | – | CC1(C(=O)N2OCC[C@H]2c2ccccc2)CC1 [Compound 20, (3S)-2-(1-Methylcyclopropanecarbonyl)-3-phenyl-1,2-oxazolidine]
10 | < 1 | < 1 µM | – | CC(C)C(=O)N1OCC[C@H]1c1ccc(F)cc1 [Compound 64, 1-[(3S)-3-(4-Fluorophenyl)-1,2-oxazolidin-2-yl]-2-methylpropan-1-one]
11 | < 1 | < 1 µM | – | CC1(C(=O)N2OCC[C@H]2c2ccccc2)CCOCC1 [Compound 69, (3S)-2-(4-methyloxane-4-carbonyl)-3-phenyl-1,2-oxazolidine]
12 | < 1 | < 1 µM | – | CC(C)(C)C(=O)N1OCCC1c1ccc(F)nc1 (stereo not shown) [Compound 70]
13 | < 1 | < 1 µM | – | CC(C)(C)C(=O)N1OCC[C@@H]1c1ccccc1F [Compound 71]
14 | < 1 | < 1 µM | – | CC(C)(C)C(=O)N1OCC[C@H]1c1ccccc1F [Compound 72]
15 | < 1 | < 1 µM | – | CC1(C(=O)N2OCC[C@H]2c2ccccc2)CCC1 [Compound 77, (3S)-2-(1-Methylcyclobutane-carbonyl)-3-phenyl-1,2-oxazolidine]
16 | < 1 | < 1 µM | – | CC(C)C(=O)N1OCC[C@H]1c1ccccc1 [Compound 78, 2-Methyl-1-[(3S)-3-phenyl-1,2-oxazolidin-2-yl]propan-1-one]
17 | < 1 | < 1 µM | – | N#CC1(C(=O)N2OCC[C@H]2c2ccccc2)CCC1 [Compound 79, 1-[(3S)-3-Phenyl-1,2-oxazolidine-2-carbonyl]cyclobutane-1-carbonitrile]
18 | < 1 | < 1 µM | – | COC(C)(C)C(=O)N1OCC[C@H]1c1ccccc1 [Compound 80, 2-Methoxy-2-methyl-1-[(3S)-3-phenyl-1,2-oxazolidin-2-yl]propan-1-one]
19 | < 1 | < 1 µM | – | CC(C)(C)C(=O)N1OCCC1c1cccnc1F (stereo not shown) [Compound 81, 1-(3-(2-fluoropyridin-3-yl)isoxazolidin-2-yl)-2,2-dimethylpropan-1-one]
20 | < 1 | < 1 µM | – | CC(C)(C)C(=O)N1OCC[C@H]1c1ccc(C#N)cc1 [Compound 87, 4-[(3S)-2-(2,2-dimethylpropanoyl)-1,2-oxazolidin-3-yl]benzonitrile]
21 | < 1 | < 1 µM and 0.016 µM | – | CC(C)(C(=O)N1OCC[C@H]1c1ccc(C#N)cc1)C(F)F [Compound 88, 4-[(3S)-2-(3,3-difluoro-2,2-dimethylpropanoyl)-1,2-oxazolidin-3-yl]benzonitrile]
22 | < 1 | < 1 µM and 0.008 µM | – | CC(C)(C(=O)N1OCC[C@H]1c1ccc(F)cc1)C(F)F [Compound 101, 3,3-difluoro-1-[(3S)-3-(4-fluorophenyl)-1,2-oxazolidin-2-yl]-2,2-dimethylpropan-1-one]
23 | < 1 | < 1 µM | – | CC(C)(C)C(=O)N1OCC[C@H]1c1cncc(C#N)c1 [Compound 108, 5-[(3S)-2-(2,2-dimethylpropanoyl)-1,2-oxazolidin-3-yl]pyridine-3-carbonitrile]
24 | – | 1 to 10 µM | 67.3 to 75.6 | CC(C)(C(=O)N1OCC[C@H]1c1ccc(/C(N)=N/O)cc1)C(F)F [Compound 206, (Z)-4-[(3S)-2-(3,3-Difluoro-2,2-dimethylpropanoyl)-1,2-oxazolidin-3-yl]-N′-hydroxybenzene-1-carboximidamide]
25 | – | < 1 µM | 87.9 to 88.9 | CC(C)(C(=O)N1OCC[C@H]1c1ccc(-c2ncon2)cc1)C(F)F [Compound 207, 3,3-difluoro-2,2-dimethyl-1-[(3S)-3-[4-(1,2,4-oxadiazol-3-yl)phenyl]-1,2-oxazolidin-2-yl]propan-1-one]
26 | – | < 1 µM | 92.1 to 95.6 | CC(C)(C(=O)N1OCC[C@H]1c1ccc(-c2noc(C3CC3)n2)cc1)C(F)F [Compound 208, 1-[(3S)-3-[4-(5-cyclopropyl-1,2,4-oxadiazol-3-yl)phenyl]-1,2-oxazolidin-1-yl]-3,3-difluoro-2,2-dimethylpropan-1-one]

From US10709692B2, “Isoxazolidine derived inhibitors of receptor interacting protein kinase 1 (RIPK1)” (Denali Therapeutics Inc., priority 2015, dated 2020)
